PubChem BioAssay AID248 (DTP/NCI, 2004)
“And” between values parts separate entries of the source, which are not always exact repeats. Equal entries are not always repeated. Inconclusive results and toxic doses are left out. Cut-off read from the data, not from the text of the source: active = T/C of 150% or more; inactive = T/C below 125%.

System: L1210 leukemia ip in BDF1 mice, survival T/C
Experiment: NCI In Vivo Anticancer Drug Screen. Data for tumor model L1210 Leukemia (intraperitoneal) in B6D2F1 (BDF1) mice
Conditions: endpoint: mean survival time, higher = longer survival
Outline: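 Read-out is survival time, reported as the treated-group measurement over the vehicle-control measurement.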

[1] = dose: 100.0 mg/kg/injection, schedule: Q01DX009 (ip), vehicle: saline with Tween-80
[2] = dose: 200.0 mg/kg/injection, schedule: Q01DX009 (ip), vehicle: saline with Tween-80
[3] = dose: 100.0 mg/kg/injection, schedule: Q01DX009 (ip), vehicle: Klucel (hydroxypropylcellulose) (HPC)
[4] = dose: 100.0 mg/kg/injection, schedule: Q04DX003 (ip), vehicle: saline
[5] = dose: 200.0 mg/kg/injection, schedule: Q04DX003 (ip), vehicle: saline
[6] = dose: 100.0 mg/kg/injection, schedule: Q04DX003 (ip), vehicle: saline with Tween-80
[7] = dose: 200.0 mg/kg/injection, schedule: Q04DX003 (ip), vehicle: saline with Tween-80
[8] = dose: 100.0 mg/kg/injection, schedule: Q01DX001 (ip), vehicle: Klucel (hydroxypropylcellulose) (HPC)
[9] = dose: 200.0 mg/kg/injection, schedule: Q01DX001 (ip), vehicle: Klucel (hydroxypropylcellulose) (HPC)
[10] = dose: 200.0 mg/kg/injection, schedule: Q01DX009 (ip), vehicle: Klucel (hydroxypropylcellulose) (HPC)
[11] = dose: 400.0 mg/kg/injection, schedule: Q01DX009 (ip), vehicle: Klucel (hydroxypropylcellulose) (HPC)
[12] = dose: 400.0 mg/kg/injection, schedule: Q04DX003 (ip), vehicle: saline with Tween-80

Measured: T/C

C#CC1(O)CCCC(C)C1 (stereo not given)
inactive: [1] 102 % of control | [2] 97 % of control

O=C(CI)Nc1ccc(Cl)c(Cl)c1
inactive: dose: 25.0 mg/kg/injection, schedule: Q01DX009 (ip), vehicle: Klucel (hydroxypropylcellulose) (HPC) 95 % of control | dose: 50.0 mg/kg/injection, schedule: Q01DX009 (ip), vehicle: Klucel (hydroxypropylcellulose) (HPC) 94 % of control | [3] 93 % of control

c1ccc2c(c1)[nH]c1nc3ncncc3nc12
inactive: [4] 94 % of control | [5] 88 % of control | dose: 400.0 mg/kg/injection, schedule: Q04DX003 (ip), vehicle: saline 97 % of control

COc1cc2ccc3c(c2cc1OC)C=[N+](C)CC3
inactive: dose: 100.0 mg/kg/injection, schedule: Q01DX009 (ip), vehicle: saline sonified 120 % of control | dose: 100.0 mg/kg/injection, schedule: Q04DX003 (ip), vehicle: saline sonified 98 % of control | dose: 200.0 mg/kg/injection, schedule: Q01DX009 (ip), vehicle: saline sonified 114 % of control | dose: 200.0 mg/kg/injection, schedule: Q04DX003 (ip), vehicle: saline sonified 93 % of control | dose: 400.0 mg/kg/injection, schedule: Q04DX003 (ip), vehicle: saline sonified 102 % of control

O=c1c(-c2ccccc2)c(-c2ccccc2)n2n1C1CCC2C1 (stereo not given)
inactive: dose: 100.0 mg/kg/injection, schedule: Q01DX001 (ip), vehicle: saline 95 % of control | dose: 200.0 mg/kg/injection, schedule: Q01DX001 (ip), vehicle: saline 89 % of control | dose: 400.0 mg/kg/injection, schedule: Q01DX001 (ip), vehicle: saline 110 % of control

CCOC1(OCC)CCS(=O)(=O)C1c1ccccc1 (stereo not given)
inactive: dose: 100.0 mg/kg/injection, schedule: Q01DX001 (ip), vehicle: acetone 104 % of control | dose: 100.0 mg/kg/injection, schedule: Q01DX009 (ip), vehicle: acetone 98 % of control | dose: 200.0 mg/kg/injection, schedule: Q01DX001 (ip), vehicle: acetone 98 % of control | dose: 200.0 mg/kg/injection, schedule: Q01DX009 (ip), vehicle: acetone 104 % of control | dose: 400.0 mg/kg/injection, schedule: Q01DX001 (ip), vehicle: acetone 96 % of control | dose: 400.0 mg/kg/injection, schedule: Q01DX009 (ip), vehicle: acetone 100 % of control

O=C1CCC(N2C(=O)C3C4c5ccccc5C(c5ccccc54)C3C2=O)C(=O)N1 (stereo not given)
inactive: [6] 97 % of control | [4] 97 % of control | [7] 93 % of control | [5] 89 % of control

Nc1ncnc(Nc2ccccc2[N+](=O)[O-])c1[N+](=O)[O-]
inactive: dose: 12.5 mg/kg/injection, schedule: Q01DX001 (ip), vehicle: Klucel (hydroxypropylcellulose) (HPC) 97 % of control | dose: 25.0 mg/kg/injection, schedule: Q01DX001 (ip), vehicle: Klucel (hydroxypropylcellulose) (HPC) 87 % of control | dose: 50.0 mg/kg/injection, schedule: Q01DX001 (ip), vehicle: Klucel (hydroxypropylcellulose) (HPC) 87 % of control

N=C(CC(=O)Nc1ccccn1)c1ccccc1
inactive: dose: 100.0 mg/kg/injection, schedule: Q01DX001 (ip), vehicle: other 100 % of control | dose: 200.0 mg/kg/injection, schedule: Q01DX001 (ip), vehicle: other 107 % of control | dose: 400.0 mg/kg/injection, schedule: Q01DX001 (ip), vehicle: other 89 % of control

O=C1c2ccccc2C(=O)N1c1ncc2ccccc2n1
inactive: dose: 100.0 mg/kg/injection, schedule: Q01DX001 (ip), vehicle: saline with Tween-80 101 % of control | dose: 200.0 mg/kg/injection, schedule: Q01DX001 (ip), vehicle: saline with Tween-80 92 % of control | dose: 400.0 mg/kg/injection, schedule: Q01DX001 (ip), vehicle: saline with Tween-80 95 % of control

CC1(ON(c2cc(Cl)cc(Cl)c2)C2(C)c3ccccc3-c3ccccc32)c2ccccc2-c2ccccc21
inactive: [6] 88 % of control | [7] 97 % of control

O=[N+]([O-])c1cc(Br)ccc1O
inactive: [4] 100 % of control | [5] 89 % of control

Cc1nc(N)[nH]c(=O)c1CCCNc1nc(Cl)nc(Cl)n1
inactive: dose: 100.0 mg/kg/injection, schedule: Q04DX002 (ip), vehicle: Klucel (hydroxypropylcellulose) (HPC) 91 % of control | dose: 200.0 mg/kg/injection, schedule: Q04DX002 (ip), vehicle: Klucel (hydroxypropylcellulose) (HPC) 91 % of control | dose: 400.0 mg/kg/injection, schedule: Q04DX002 (ip), vehicle: Klucel (hydroxypropylcellulose) (HPC) 88 % of control

Oc1ccc2ccccc2c1CNc1ccccc1
inactive: dose: 100.0 mg/kg/injection, schedule: Q04DX003 (ip), vehicle: other 88 % of control | dose: 200.0 mg/kg/injection, schedule: Q04DX003 (ip), vehicle: other 94 % of control

C=C1C(=O)OC2C1CCC1(C)CCCC(=C)C21O (stereo not given)
inactive: dose: 25.0 mg/kg/injection, schedule: Q04DX002 (ip), vehicle: saline 105 % of control | dose: 50.0 mg/kg/injection, schedule: Q04DX002 (ip), vehicle: saline 102 % of control | dose: 100.0 mg/kg/injection, schedule: Q04DX002 (ip), vehicle: saline 93 % of control and 97 % of control | dose: 200.0 mg/kg/injection, schedule: Q04DX002 (ip), vehicle: saline 90 % of control

CC(=O)NC(C)C1(O)CCCCC1 (stereo not given)
inactive: dose: 100.0 mg/kg/injection, schedule: Q01DX009 (ip), vehicle: saline 101 % of control | dose: 200.0 mg/kg/injection, schedule: Q01DX009 (ip), vehicle: saline 96 % of control | dose: 400.0 mg/kg/injection, schedule: Q01DX009 (ip), vehicle: saline 98 % of control

CCSC(=S)n1c2ccccc2c2ccccc21
inactive: [8] 98 % of control | [3] 101 % of control | [9] 101 % of control | [10] 96 % of control | dose: 400.0 mg/kg/injection, schedule: Q01DX001 (ip), vehicle: Klucel (hydroxypropylcellulose) (HPC) 92 % of control | [11] 101 % of control

NC(=O)c1[nH]cnc1N1CC[N+](Cc2ccccc2)=N1
inactive: [8] 102 % of control | [9] 96 % of control

CCSC(=O)N1c2ccc(OC)cc2C=CC1C#N (stereo not given)
inactive: [1] 119 % of control | [6] 101 % of control | [2] 124 % of control | [7] 97 % of control | dose: 400.0 mg/kg/injection, schedule: Q01DX009 (ip), vehicle: saline with Tween-80 119 % of control | [12] 111 % of control

CC1(C)CCc2ccccc2C1
inactive: dose: 50.0 mg/kg/injection, schedule: Q01DX009 (ip), vehicle: saline with Tween-80 104 % of control | [1] 96 % of control

O=C(Nc1ccc(C2=NCCN2)cc1)c1ccc(C(=O)Nc2ccc(C3=NCCN3)cc2)c(O)c1
inactive: dose: 15.0 mg/kg/injection, schedule: Q01DX Z (ip), vehicle: methylcellulose (MC) 96 % of control | dose: 30.0 mg/kg/injection, schedule: Q01DX Z (ip), vehicle: methylcellulose (MC) 98 % of control | dose: 60.0 mg/kg/injection, schedule: Q01DX Z (ip), vehicle: methylcellulose (MC) 93 % of control | dose: 120.0 mg/kg/injection, schedule: Q01DX Z (ip), vehicle: methylcellulose (MC) 93 % of control

O=C(O)C1C2CCC(O2)C1C(=O)O (stereo not given)
inactive: dose: 100.0 mg/kg/injection, schedule: Q01DX001 (ip), vehicle: carboxymethylcellulose (CMC) 91 % of control | [6] 100 % of control | dose: 200.0 mg/kg/injection, schedule: Q01DX001 (ip), vehicle: carboxymethylcellulose (CMC) 88 % of control | [7] 96 % of control | [12] 102 % of control

Cc1c(Cl)cccc1NC(=O)c1ccccc1
inactive: [3] 93 % of control | dose: 100.0 mg/kg/injection, schedule: Q04DX003 (ip), vehicle: Klucel (hydroxypropylcellulose) (HPC) 91 % of control | [10] 96 % of control | dose: 200.0 mg/kg/injection, schedule: Q04DX003 (ip), vehicle: Klucel (hydroxypropylcellulose) (HPC) 106 % of control | [11] 100 % of control | dose: 400.0 mg/kg/injection, schedule: Q04DX003 (ip), vehicle: Klucel (hydroxypropylcellulose) (HPC) 98 % of control

CC1(C(O)(c2ccccc2)c2ccccc2)CC1
inactive: dose: 25.0 mg/kg/injection, schedule: Q04DX002 (sc), vehicle: olive oil, sesame oil, peanut oil 109 % of control | dose: 50.0 mg/kg/injection, schedule: Q04DX002 (sc), vehicle: olive oil, sesame oil, peanut oil 97 % of control | dose: 100.0 mg/kg/injection, schedule: Q04DX002 (sc), vehicle: olive oil, sesame oil, peanut oil 106 % of control
